These results are taken from patent US8846713B2, “Fused heterocyclic compounds as phosphodiesterases (PDEs) inhibitors” (Takeda Pharmaceutical Company Limited, priority 2010, dated 2014).

One series has as its target T1, Human PDE10A enzyme (Homo sapiens, UniProt Q9Y233).
T1 construct: transfected with the full-length gene; His-tag; made in house; host or cells: Sf9 or COS-7 cells
Kind of series: PDE enzyme inhibition, SPA (Scintillation Proximity Assay) with [3H]cGMP. It is filed as biochemical. Particulars: [3H]cGMP substrate; for inhibition at 1 µM: compound 1 μM, read-out: Percent inhibition (1 μM); for inhibition at 10 µM: compound 10 μM, read-out: Percent inhibition (10 μM). As for the experimental part: Human PDE10A enzyme was generated from Sf9 or COS-7 cells transfected with the full-length gene. Cloned enzyme was extracted from homogenized cell pellets. The extracted enzyme from sf9 cells was partially purified using His-tag affinity column. The enzyme was stored at −70° C. until use. PDE activity was measured using a SPA (Scintillation Proximity Assay) (GE Healthcare). To evaluate the inhibitory activity, 10 μL of serial diluted compounds were incubated with 20 μL of PDE enzyme in assay buffer (50 mM HEPES-NaOH, 8.3 mM MgCl2, 1.7 mM EGTA, 0.1% BSA (pH 7.4)) for 30 min. at room temperature. Final concentration of DMSO in the assay was 1 percent as compounds were tested in duplicate in 96-well half-area plates (Corning). To start the reaction, 10 μL of substrate [^3H] cGMP (25 or 50 nM; enclosed in SPA kits from GE Healthcare or purchased from PerkinElmer, respectively) was added for a final assay volume of 40 μL. After 60 min incubation at room temperature, yttrium SPA beads containing Zinc sulphate were added (20 μL at 6 mg/mL) to terminate the PDE reaction. After being settled for 60 min, assay plates were counted in a scintillation counter (PerkinElmer) to allow calculation of inhibition rate. Inhibition rate was calculated on the basis of 0% control wells with DMSO and 100% control wells without enzyme.
In general terms: In a scintillation proximity assay essentially only radioactivity close to the scintillant gives light.

T1 sequence (Q9Y233 267-1055): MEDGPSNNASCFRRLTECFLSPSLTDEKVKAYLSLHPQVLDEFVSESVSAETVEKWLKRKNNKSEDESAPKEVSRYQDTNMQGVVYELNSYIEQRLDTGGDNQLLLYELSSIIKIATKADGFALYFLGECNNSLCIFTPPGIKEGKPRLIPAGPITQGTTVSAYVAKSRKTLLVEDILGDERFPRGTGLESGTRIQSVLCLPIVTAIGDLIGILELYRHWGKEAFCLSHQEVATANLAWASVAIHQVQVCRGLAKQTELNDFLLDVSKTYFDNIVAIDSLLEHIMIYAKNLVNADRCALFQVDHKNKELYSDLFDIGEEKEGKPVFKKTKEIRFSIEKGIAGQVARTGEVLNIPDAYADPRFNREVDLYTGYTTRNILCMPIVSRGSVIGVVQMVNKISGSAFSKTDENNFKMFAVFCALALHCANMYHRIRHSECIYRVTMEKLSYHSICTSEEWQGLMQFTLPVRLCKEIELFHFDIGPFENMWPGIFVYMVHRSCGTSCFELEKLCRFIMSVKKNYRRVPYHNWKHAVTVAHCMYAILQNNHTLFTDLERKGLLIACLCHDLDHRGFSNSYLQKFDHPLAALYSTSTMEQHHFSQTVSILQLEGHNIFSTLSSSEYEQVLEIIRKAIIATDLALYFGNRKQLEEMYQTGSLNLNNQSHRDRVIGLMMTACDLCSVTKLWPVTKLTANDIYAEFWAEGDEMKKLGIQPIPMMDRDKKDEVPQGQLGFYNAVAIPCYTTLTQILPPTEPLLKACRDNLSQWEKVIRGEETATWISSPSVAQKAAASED

What is called inhibition is the change of the read-out against control, counted positive when it falls. Broadly, the melting point is the temperature of the solid-liquid transition. Molecule `Cc1cnc2c(c1)n(C(C)C)c(=O)n2-c1ccc(Oc2nc3cccnc3n2C)cc1` [Example 122, 6-methyl-1-(1-methylethyl)-3-{4-[(3-methyl-3H-imidazo[4,5-b]pyridin-2-yl)oxy]phenyl}-1,3-dihydro-2H-imidazo[4,5-b]pyridin-2-one] yielded a melting point of 252 °C. On Human PDE10A enzyme, the inhibition at 1 µM is 109% and the inhibition at 10 µM turned out to be 107%.
For the molecule `CCn1c(=O)n(-c2ccc(Oc3nc4cccnc4n3C)cc2)c2ncc(OCC(F)(F)F)cc21` [Example 129, 1-ethyl-3-{4-[(3-methyl-3H-imidazo[4,5-b]pyridin-2-yl)oxy]phenyl}-6-(2,2,2-trifluoroethoxy)-1,3-dihydro-2H-imidazo[4,5-b]pyridin-2-one], the melting point fell in the range of 178 to 179 °C. In addition, on Human PDE10A enzyme, the inhibition at 1 µM is 89% and the inhibition at 10 µM came out at 96%.
`CCn1c(=O)n(-c2ccc(Oc3nc4cccnc4n3C)cc2)c2ncc(OCC(F)F)cc21` [Example 128, 6-(2,2-difluoroethoxy)-1-ethyl-3-{4-[(3-methyl-3H-imidazo[4,5-b]pyridin-2-yl)oxy]phenyl}-1,3-dihydro-2H-imidazo[4,5-b]pyridin-2-one] displayed a melting point of 171 to 172 °C. In addition, at Human PDE10A enzyme, the inhibition at 1 µM came out at 94% and the inhibition at 10 µM was 91%.
`CCn1c(=O)n(-c2ccc(Oc3nc4cccnc4n3C)cc2)c2ncc(OC(F)F)cc21` [Example 127, 6-(difluoromethoxy)-1-ethyl-3-{4-[(3-methyl-3H-imidazo[4,5-b]pyridin-2-yl)oxy]phenyl}-1,3-dihydro-2H-imidazo[4,5-b]pyridin-2-one] returned a melting point of 195 to 197 °C. Also, on Human PDE10A enzyme, the inhibition at 1 µM worked out at 101% and the inhibition at 10 µM was 101%.
With `CCn1c(=O)n(-c2ccc(Oc3nc4cccnc4n3C)cc2)c2ncc(C)cc21` [Example 118, 1-ethyl-6-methyl-3-{4-[(3-methyl-3H-imidazo[4,5-b]pyridin-2-yl)oxy]phenyl}-1,3-dihydro-2H-imidazo[4,5-b]pyridin-2-one], the melting point lay in the range of 217 to 219 °C. For the same molecule, at Human PDE10A enzyme, the inhibition at 1 µM amounted to 102% and the inhibition at 10 µM amounted to 104%.
For `Cc1ccnc2c1n(C(C)C)c(=O)n2-c1ccc(Oc2nc3cccnc3n2C)cc1` [Example 121, 7-methyl-1-(1-methylethyl)-3-{4-[(3-methyl-3H-imidazo[4,5-b]pyridin-2-yl)oxy]phenyl}-1,3-dihydro-2H-imidazo[4,5-b]pyridin-2-one], in that order: 270 to 271 °C, 103% and 99%.
Molecule `CCn1c(=O)n(-c2ccc(Oc3nc4cccnc4n3C)cc2)c2ncc(OC)cc21` [Example 119, 1-ethyl-6-methoxy-3-{4-[(3-methyl-3H-imidazo[4,5-b]pyridin-2-yl)oxy]phenyl}-1,3-dihydro-2H-imidazo[4,5-b]pyridin-2-one] came in with a melting point of 197 to 198 °C. For the same molecule, on Human PDE10A enzyme, the inhibition at 1 µM was found to be 99% and the inhibition at 10 µM is 103%.
Molecule `CCn1c(=O)n(-c2ccc(Oc3nc4cccnc4n3C)cc2)c2nccc(C(F)(F)F)c21` [Example 130, 1-ethyl-3-{4-[(3-methyl-3H-imidazo[4,5-b]pyridin-2-yl)oxy]phenyl}-7-(trifluoromethyl)-1,3-dihydro-2H-imidazo[4,5-b]pyridin-2-one] registered a melting point of 244 to 246 °C. In addition, on Human PDE10A enzyme, the inhibition at 1 µM came out at 95% and the inhibition at 10 µM came out at 98%.
`CCn1c(=O)n(-c2ccc(Oc3nc4ccccc4n3C)cc2)c2ncncc21` [Example 125, 7-ethyl-9-{4-[(1-methyl-1H-benzimidazol-2-yl)oxy]phenyl}-7,9-dihydro-8H-purin-8-one] came in with a melting point of 242 to 243 °C. Further, on Human PDE10A enzyme, the inhibition at 1 µM stood at 99% and the inhibition at 10 µM worked out at 101%.
For `CCn1c(=O)n(-c2ccc(N3CCn4c3nc3cccnc34)cc2)c2ncccc21` [Example 134, 3-[4-(2,3-dihydro-1H-imidazo[2′,1′:2,3]imidazo[4,5-b]pyridin-1-yl)phenyl]-1-ethyl-1,3-dihydro-2H-imidazo[4,5-b]pyridin-2-one], the melting point lay in the range of 255 to 256 °C. Further, on Human PDE10A enzyme, the inhibition at 1 µM is 101% and the inhibition at 10 µM was 104%.
`CCn1c(=O)n(-c2ccc(Oc3nc4ccccc4n3C)cc2)c2ncc(Cl)cc21` [Example 106, 6-chloro-1-ethyl-3-{4-[(1-methyl-1H-benzimidazol-2-yl)oxy]phenyl}-1,3-dihydro-2H-imidazo[4,5-b]pyridin-2-one] gave a melting point of 208 to 210 °C. Moreover, on Human PDE10A enzyme, the inhibition at 1 µM stood at 103% and the inhibition at 10 µM came to 102%.
The molecule `CCn1c(=O)n(-c2ccc(-n3ccn4c5ccccc5nc34)cc2)c2ncccc21` [Example 65, 1-Ethyl-3-[4-(1H-imidazo[1,2-a]benzimidazol-1-yl)phenyl]-1,3-dihydro-2H-imidazo[4,5-b]pyridin-2-one] came in with a melting point of 220 to 221 °C. At Human PDE10A enzyme, the inhibition at 1 µM was 100% and the inhibition at 10 µM amounted to 101%.
